According to US20210220376A1, “ADDICTION TREATMENT OF AN ALCOHOL-CONSUMING PATIENT POPULATION” (Amygdala Neurosciences, Inc., priority 2018, published 2021):

Experiments:
hMAO-A = biological target: T1, hMAO-A (Homo sapiens, UniProt P21397); conditions: read-out: IC50 hMAO-A; cited from earlier work
T1 sequence (P21397 1-527): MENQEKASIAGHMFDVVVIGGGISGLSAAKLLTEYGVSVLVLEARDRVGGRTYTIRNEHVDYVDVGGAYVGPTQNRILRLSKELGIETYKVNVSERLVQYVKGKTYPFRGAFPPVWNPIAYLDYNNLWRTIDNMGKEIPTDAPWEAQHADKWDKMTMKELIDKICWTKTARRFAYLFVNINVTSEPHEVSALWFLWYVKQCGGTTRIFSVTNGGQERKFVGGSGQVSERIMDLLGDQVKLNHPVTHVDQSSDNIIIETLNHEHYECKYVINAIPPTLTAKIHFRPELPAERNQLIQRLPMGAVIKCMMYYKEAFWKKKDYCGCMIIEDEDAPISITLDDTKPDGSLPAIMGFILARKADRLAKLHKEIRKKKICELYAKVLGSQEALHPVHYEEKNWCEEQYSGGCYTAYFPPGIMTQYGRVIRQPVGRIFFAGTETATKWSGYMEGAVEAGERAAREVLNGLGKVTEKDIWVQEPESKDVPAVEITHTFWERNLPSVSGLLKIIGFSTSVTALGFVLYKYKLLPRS

hMAO-B = biological target: T2, hMAO-B (Homo sapiens, UniProt P27338); conditions: read-out: IC50 hMAO-B; cited from earlier work
T2 sequence (P27338 1-520): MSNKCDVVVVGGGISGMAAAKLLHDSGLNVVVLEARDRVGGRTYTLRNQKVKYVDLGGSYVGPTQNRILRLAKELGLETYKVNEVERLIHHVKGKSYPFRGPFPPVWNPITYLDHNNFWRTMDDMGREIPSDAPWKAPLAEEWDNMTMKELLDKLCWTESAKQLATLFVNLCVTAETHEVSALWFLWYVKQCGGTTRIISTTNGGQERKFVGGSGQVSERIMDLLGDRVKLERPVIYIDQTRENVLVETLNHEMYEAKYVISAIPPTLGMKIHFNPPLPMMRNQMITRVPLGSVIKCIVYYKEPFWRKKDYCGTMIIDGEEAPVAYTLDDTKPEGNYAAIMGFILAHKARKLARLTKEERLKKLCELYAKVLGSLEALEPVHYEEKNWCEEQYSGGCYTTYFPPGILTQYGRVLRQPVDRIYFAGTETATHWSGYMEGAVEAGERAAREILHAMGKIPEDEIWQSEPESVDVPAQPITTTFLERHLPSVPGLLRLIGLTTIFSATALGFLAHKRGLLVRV

[1] = Phase 1 study of compound (2) with ethanol: pharmacokinetics of compound (1) and breath alcohol
Source text: Plasma concentrations of compound (1) and BrAC were summarized and listed by treatment, subject and timepoint. Pharmacokinetic parameters derived for compound (1) were also summarized and listed by treatment and subject. Pharmacokinetic parameters were estimated using a non-compartmental approach with a log-linear terminal phase assumption. The trapezoidal rule was used to estimate the area under the curve (linear trapezoidal linear interpolation) and the terminal phase will be estimated by maximizing the coefficient of determination estimated from the log-linear regression model. However, AUC0-∞, AUClast/∞, λz and t1/2 parameters were to be estimated for individual concentration-time profiles only when the terminal log-linear phase could be reliably characterized.
Proportionality analysis was done using a power model. The power model was defined as: […]
A linear model with ln-transformed dose as a continuous effect was fitted. A point estimate and a 90% CI was derived for the slope (β). The parameter could be considered to be dose proportional if the 90% confidence interval of the slope β was within [1+ln(0.8)/ln(r), 1+ln(1.25)/ln(r)], where r=the highest dose studied/the lowest dose (Smith et al., “Confidence interval criteria for assessment of dose proportionality.” Pharm Res. 17 (10):1278-83 (2000)).

[2] = test system: alcohol-consuming patient population; conditions: 500 mg/day DSF; cited from earlier work

Compound | IC50 (hMAO-A) | IC50 (hMAO-B) | also measured
COCCOc1cc(Cl)c(C(=O)NCc2ccc(-c3cc[nH]c(=O)c3)cc2)c(Cl)c1 [(3), 2,6-dichloro-4-(2-methoxyethoxy)-N-(4-(2-oxo-1,2-dihydropyridin-4-yl)benzyl)benzamide] | > 130 µM | > 130 µM | 
O=C(NCc1ccc(-c2cc[nH]c(=O)c2)cc1)c1cccc(F)c1Cl [(4), 2-chloro-3-fluoro-N-(4-(2-oxo-1,2-dihydropyridin-4-yl)benzyl)benzamide] | > 130 µM | > 130 µM | 
Cc1cccc(Cl)c1C(=O)NCc1ccc(-c2cc[nH]c(=O)c2)cc1 [(5), 2-chloro-6-methyl-N-(4-(2-oxo-1,2-dihydropyridin-4-yl)benzyl)benzamide] | > 130 µM | > 130 µM | 
Cc1cccc(C)c1C(=O)NCc1ccc(-c2cc[nH]c(=O)c2)cc1 [(6), 2,6-dimethyl-N-(4-(2-oxo-1,2-dihydropyridin-4-yl)benzyl)benzamide] | > 130 µM | > 130 µM | 
Cc1cc(-c2ccc(CNC(=O)c3c(Cl)cccc3Cl)cc2)cc(=O)[nH]1 [(7), 2,6-dichloro-N-[4-(6-methyl-2-oxo-1,2-dihydro-pyridin-4-yl)-benzyl]-benzamide] | > 130 µM | > 130 µM | 
O=C(NCc1ccc(-c2cc[nH]c(=O)c2)cc1)c1c(F)ccc(F)c1Cl [(8), 2-chloro-3,6-difluoro-N-(4-(2-oxo-1,2-dihydropyridin-4-yl)benzyl)benzamide] | > 130 µM | > 130 µM | 
Cc1cc(CNC(=O)c2c(Cl)cccc2Cl)ccc1-c1cc[nH]c(=O)c1 [(9), 2,6-dichloro-N-(3-methyl-4-(2-oxo-1,2-dihydropyridin-4-yl)benzyl)benzamide] | > 130 µM | > 130 µM | 
Cn1ccc(-c2ccc(CNC(=O)c3c(Cl)cccc3Cl)cc2)cc1=O [(10), 2,6-dichloro-N-(4-(1-methyl-2-oxo-1,2-dihydropyridin-4-yl)benzyl)benzamide] | > 130 µM | > 130 µM | 
O=C(NCc1ccc(-c2cc[nH]c(=O)c2)cc1)c1c(F)cccc1F [(11), 2,6-difluoro-N-(4-(2-oxo-1,2-dihydropyridin-4-yl)benzyl)benzamide] | > 130 µM | > 130 µM | 
O=C(NCc1ccc(-c2cc[nH]c(=O)c2)cc1)c1c(F)cccc1Cl [(12), 2-chloro-6-fluoro-N-(4-(2-oxo-1,2-dihydropyridin-4-yl)benzyl)benzamide] | > 130 µM | > 130 µM | 
O=C(NCc1ccc(-c2cc[nH]c(=O)c2)cc1F)c1c(Cl)cccc1Cl [(13), 2,6-dichloro-N-(2-fluoro-4-(2-oxo-1,2-dihydropyridin-4-yl)benzyl)benzamide] | > 130 µM | > 130 µM | 
O=C(NCc1ccc(-c2cc(=O)[nH]cc2F)cc1)c1c(Cl)cccc1Cl [(14), 2,6-dichloro-N-(4-(5-fluoro-2-oxo-1,2-dihydropyridin-4-yl)benzyl)benzamide] | > 130 µM | > 130 µM | 
O=C(NCc1ccc(-c2cc[nH]c(=O)c2)cc1)c1c(Cl)cccc1Cl [Compound (1), 2,6-dichloro-N-[4-(2-oxo-1,2-dihydro-pyridin-4-yl)-benzyl]-benzamide] | > 130 µM | > 130 µM | dose proportionality of peak and overall exposure (power model) ([1]; 25 mg to 600 mg dose range): did not increase in a compound (2) dose-proportional manner; peak (Cmax) and overall (AUC) exposure to compound (1) ([1]; following a moderate-fat meal): increased with increasing dose of compound (2); Tmax ([1]; male, human, plasma, po): 3.5 to 5 h; half-life ([1]; male, human, plasma, po): 17 to 27 h
CCN(CC)C(=S)SSC(=S)N(CC)CC [DSF, Disulfuram] |  |  | outcome of safety study [2]: halted prematurely due to severity of DER
